Molecules are shown by their SMILES.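 In this assay, cells in 96-well plates receive the compound at five concentrations for 48 hours. Endpoints are linearly interpolated between the surrounding concentrations. GI50: concentration for 50% inhibition of growth. TGI is the concentration that stops growth completely.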

Holding throughout (test): NCI anticancer screen, dose series, 48 h
The subject of assay [1] is HOP-92 NSCLC.
The subject of assay [2] is SN12C renal.
The test system of assay [3] is MOLT-4 leukemia.
Assay [4] deals with RXF 393 renal.
In assay [5] the test system is HS 578T breast.
For assay [6], the system named is OVCAR-4 ovarian.
For assay [7], the system named is DMS 114 small cell lung.
In assay [8] the test system is KM20L2 colon.
Assay [9] concerns SNB-78 CNS.
In assay [10] the test system is LXFL 529 NSCLC.

For the compound `N#C/C(=C\c1c(-c2ccccc2)[nH]c2ccccc12)C(=O)c1ccc(Cl)cc1`, the GI50 in [1] is 3.35 µM; in assay [2] it was 6.91 µM; in [3], 1.01 µM; in assay [4], 19.5 µM; in assay [5], 1.56 µM; in assay [6] it was 3.68 µM. For the same compound, the TGI was 22.1 µM in [1]; over 78.7 µM in assay [2]; 8.87 µM in assay [3]; over 100 µM in assay [4]; 9.27 µM in assay [5]; 22.8 µM in assay [6].

For `O=C(CCCc1c[nH]c2ccccc12)NC1CC(=O)c2c(Br)sc(Br)c21` (stereo not given), the GI50 was 17.9 µM in assay [1]; 17.3 µM in [2]; 10.2 µM in [3]; 14.7 µM in assay [4]; 6.44 µM in assay [5]; 12.8 µM in assay [6]. Further, the TGI in assay [1] was determined as 40 µM; in [2] it was 33 µM; in assay [3], 55.4 µM; in assay [4], 80.8 µM; in assay [5] it was 51.3 µM; in assay [6] it was 25.9 µM.

Turning to `COc1ccc(-c2cc(-c3ccc(Nc4nc(Nc5ccc(Cl)cc5)nc(Nc5ccc(Cl)cc5)n4)cc3)nc(N)c2C#N)cc1`, the GI50 in assay [1] was 1.31 µM; in assay [2], 2.58 µM; in [3] it was 0.702 µM; in assay [4] it was 0.491 µM; in assay [5], 1.48 µM; in assay [6], 2.51 µM. Also, the TGI in assay [1] was 3.14 µM; in [2], over 100 µM; in [3], 3.56 µM; in assay [4], 1.92 µM; in assay [5] it was 5.68 µM; in assay [6], over 100 µM.

Turning to `N#Cc1ccccc1NC(=O)C(=O)C(C(=O)c1ccccc1-c1ccccc1)C1OC(=O)c2ccccc21` (stereo not given), the TGI is 38.8 µM in assay [1]; 41.6 µM in [7]; 40.8 µM in [8]; 59.9 µM in assay [9]; 70 µM in assay [3]; 25.3 µM in [4].

Regarding `COC(=O)c1cnc(=O)n(C2CC(O)C(CO)O2)c1` (stereo not given), the TGI in assay [1], in assay [2], in [3], in [4], in assay [5] and in assay [6] was over 100 µM each time. In addition, the GI50 in assay [2], in assay [3], in [4], in [5] and in [6] was over 100 µM in each case.

Regarding `CC(=O)[CH-]C(=O)c1ccccc1.CC(=O)[CH-]C(=O)c1ccccc1.CCN(CC)CC[O-].CCN(CC)CC[O-].Cl.[Ti+4]`, the GI50 is 22.2 µM in assay [10]; 39.5 µM in assay [2]; 28.9 µM in assay [8]; 16.8 µM in assay [3]; 56.5 µM in assay [6]. For the same compound, the TGI is 68.3 µM in assay [10]; over 100 µM in assay [2]; over 100 µM in assay [8]; 59.9 µM in assay [3]; over 100 µM in assay [6].

With `CCOC(=O)Cc1c(Cc2[nH]c(C(=O)OCc3ccccc3)c(CC(=O)OCC)c2CC(=O)OCC)[nH]c(C(=O)OCc2ccccc2)c1CC(=O)OCC`, the TGI in assay [1], in [10], in assay [2], in [7], in [8] and in assay [9] was over 100 µM in each case. For the same compound, the TGI in [3] was over 100 µM.

On to `Cc1ccc(S(=O)(=O)NC(CCC(=O)Nc2ccc(Cl)cc2)C(=O)Nc2ccc(Cl)cc2)cc1` (stereo not given), for which the GI50 in assay [1] was 0.805 µM; in [2], 0.685 µM; in [3] it was 0.691 µM; in assay [4], 1.89 µM; in [5], 1.32 µM; in assay [6], 0.775 µM. Moreover, the TGI in assay [1] is 2.76 µM; in assay [2] it was 8.84 µM; in [3], 7.66 µM; in assay [4], 7.31 µM; in assay [5], 7.5 µM; in [6], 3.46 µM.

In the case of `O=C1c2ccccc2-c2c1c1ccccc1c(=O)n2CCO`, the TGI in [1] was over 71.6 µM; in assay [2], over 100 µM; in [3] it was 9.36 µM; in assay [4] it was over 100 µM; in assay [5], over 100 µM; in assay [6] it was over 100 µM.

Turning to `COc1cc[nH]c1/C=C1\C(=O)Nc2ccc(F)c(C#C[C@@H](O)[C@@H](N)[C@@H](C)O)c21`, the GI50 in assay [1] was 0.517 µM; in assay [2], 0.51 µM; in assay [3], 0.6 µM; in [4], 0.279 µM; in assay [5] it was 0.381 µM; in assay [6] it was 0.671 µM. In addition, the TGI worked out at 1.96 µM in assay [1]; 8.38 µM in assay [2]; 2.06 µM in assay [3]; 0.955 µM in [4]; 1.68 µM in assay [5]; 6.85 µM in [6].

For `COc1cc(C(=O)O)c([N+](=O)[O-])c(OC)c1OC`, the TGI in assay [1], in assay [2], in assay [3], in [4], in assay [5] and in assay [6] was over 100 µM each time.

For `O=[N+]([O-])c1ccc(N/N=C\c2cc(Cl)ccc2O)nc1`, the GI50 was 6.68 µM in [1]; 2.99 µM in assay [2]; 0.51 µM in [3]; 5.66 µM in [4]; 7.33 µM in [5]; 1.72 µM in assay [6]. Besides, the TGI was over 100 µM in [1]; over 100 µM in assay [2]; over 100 µM in assay [3]; 38.8 µM in assay [4]; over 100 µM in assay [5]; 13.7 µM in [6].

For the compound `CCCCCCCCCCCCc1ccc(C(=O)/C=C/C(=O)O)cc1`, the GI50 in assay [1] was 1.95 µM; in assay [2], 1.83 µM; in assay [3] it was 0.99 µM; in assay [4], 1.76 µM; in [5] it was 7.61 µM; in [6], 2.06 µM. Moreover, the TGI in [1] was found to be 5.78 µM; in [2], 4.14 µM; in assay [3], 5.11 µM; in assay [4] it was 3.34 µM; in assay [5], 42.1 µM; in assay [6], 4.46 µM.

Values taken from PubChem BioAssay (NCI).
